# What was measured:
# [1] = Total weight of exudate (oil) absorbed by filter paper blotter discs and theoretical amount of each ingredient exuded; assay type: physicochemical
# Procedure: (§1) Exposure Conditions: 37-40 deg. C., Sample filter paper discs in contact with gel specimens of same diameter were stacked in […]. aluminum petri dishes, gel specimen diameter 2.625″×0.125″ thick, filter paper disc diameter 2.625″ with another petri dish and a 1 kg dead weight on top of stack. Pressure calculated at ˜0.407 psi. (2.8 Mpa) constant. Two replicates per test condition. Repeat exposures at 3 hours then repeat three exposures of 18 hours each, changing discs but keeping same gel specimen and same side of each gel specimen in contact with each successive filter paper disc sample.
# Data was calculated to determine the total weight of exudate absorbed by each individual sample filter paper blotter disc test specimen. Calculations were then performed based upon the ratios of ingredients in the gel disc formula to determine the theoretical amount of each ingredient that could have been exuded from the oil if the oil contained the same ratio of ingredients as contained in the control oil sample and in the gel.
# [2] = Exudation of active agents from gel specimens to filter paper discs, quantified by UV, MS, GC and/or HPLC after extraction; assay type: physicochemical; conditions: for Active Agent Transferred from Gel to Filters: 37° C., 0.40 psi; for Total Active Agent Exuded from Gel: cumulative
# Procedure: Sample filter paper discs were placed in contact with gel specimens of same diameter under constant low pressure (0.40 psi. (2.8 Mpa)) at 37° C. Multiple time-controlled exposures of the filter paper to the gel were preformed in succession to same side of gel. Quantification of active agent transferred to the filter paper discs was determined by UV, MS, GC and or HPLC analysis after extraction of active agent from the filter paper. Exudation rates was expressed as μg/unit time per unit surface area.
# This compound was then divided into three aliquots' of approximately 10 grams each and poured into a 2.625″ diameter aluminum petri dish and allowed to cool to create individual gel samle discs. Subsequently, absorbent cellulose filter blotter paper was die cut to enough 2.625″ diameter discs to be employed as a wicking media for repeated exposure in direct contact with the gel compound under specific conditions as follows.
# as §1
# The filter paper disc specimens aa through kk were then sent to an analytical laboratory for HPLC and GC analysis along with a small sample of each individual raw ingredient so that the HPLC and GC equipment could be calibrated for the protocol being employed by the lab. This calibration allowed for determining the maximum recoverable (measurable) amount of each ingredient that could be measured using these techniques and would later be used to correct the data. The analytical laboratory then detected and measured the amount of each of the added active agents that was flushed out of the filter paper discs using wet chemistry techniques known to those skilled in the art.
# The analytical data was interpreted, and the amounts of each ingredient which was exuded into each filter paper blotter disc specimen, and subsequently extracted using wet chemistry, were then entered into a data analysis spreadsheet and adjusted based on the Analytical Recovery Rate to determine actual concentration of each ingredient extracted.
substance,measurement,setting,value
Synthetic Menthol [S-Menthol],Estimated grams of ingredient exuded (theoretical amount from ratios of ingredients in the gel disc formula),"[1]; Sample aa, Test Disc 1, Exposed 1 hours",0.0022 grams
same,Estimated grams of ingredient exuded (theoretical amount from ratios of ingredients in the gel disc formula),"[1]; Sample bb, Test Disc 1 Replicate, Exposed 1 hours",0.0031 grams
same,Estimated grams of ingredient exuded (theoretical amount from ratios of ingredients in the gel disc formula),"[1]; Sample cc, Test Disc 2, Exposed 3 hours",0.0024 grams
same,Estimated grams of ingredient exuded (theoretical amount from ratios of ingredients in the gel disc formula),"[1]; Sample dd, Test Disc 2 Replicate, Exposed 3 hours",0.0035 grams
same,Estimated grams of ingredient exuded (theoretical amount from ratios of ingredients in the gel disc formula),"[1]; Sample ee, Test Disc 3, Exposed 18 hours",0.0062 grams
same,Estimated grams of ingredient exuded (theoretical amount from ratios of ingredients in the gel disc formula),"[1]; Sample ff, Test Disc 3 Replicate, Exposed 18 hours",0.0062 grams
same,Estimated grams of ingredient exuded (theoretical amount from ratios of ingredients in the gel disc formula),"[1]; Sample gg, Test Disc 4, Exposed 18 hours",0.0064 grams
same,Estimated grams of ingredient exuded (theoretical amount from ratios of ingredients in the gel disc formula),"[1]; Sample hh, Test Disc 4 Replicate, Exposed 18 hours",0.0057 grams
same,Estimated grams of ingredient exuded (theoretical amount from ratios of ingredients in the gel disc formula),"[1]; Sample ii, Test Disc 5, Exposed 18 hours",0.0051 grams
same,Estimated grams of ingredient exuded (theoretical amount from ratios of ingredients in the gel disc formula),"[1]; Sample kk, Test Disc 5 Replicate, Exposed 18 hours",0.0051 grams
same,Active Agent Transferred from Gel to Filters,"[2]; Gel Specimen Number 1, 1 h filter exposure, time 0-1 h",3578 μg per filter
same,Active Agent Transferred from Gel to Filters,"[2]; Gel Specimen Number 1, 3 h filter exposure, time 1-4 h",4193 μg per filter
same,Active Agent Transferred from Gel to Filters,"[2]; Gel Specimen Number 1, 18 h filter exposure, time 4-22 h",8952 μg per filter
same,Active Agent Transferred from Gel to Filters,"[2]; Gel Specimen Number 1, 18 h filter exposure, time 22-40 h",8566 μg per filter
same,Active Agent Transferred from Gel to Filters,"[2]; Gel Specimen Number 1, 18 h filter exposure, time 40-58 h",7193 μg per filter
same,Total Active Agent Exuded from Gel,"[2]; Gel Specimen Number 1, Time 1 h",3578 µg
same,Total Active Agent Exuded from Gel,"[2]; Gel Specimen Number 1, Time 4 h",7771 µg
same,Total Active Agent Exuded from Gel,"[2]; Gel Specimen Number 1, Time 22 h",16723 µg
same,Total Active Agent Exuded from Gel,"[2]; Gel Specimen Number 1, Time 40 h",25289 µg
same,Total Active Agent Exuded from Gel,"[2]; Gel Specimen Number 1, Time 58 h",32482 µg
same,Active Agent Transferred from Gel to Filters,"[2]; Gel Specimen Number 2, 1 h filter exposure, time 0-1 h",4855 μg per filter
same,Active Agent Transferred from Gel to Filters,"[2]; Gel Specimen Number 2, 3 h filter exposure, time 1-4 h",5373 μg per filter
same,Active Agent Transferred from Gel to Filters,"[2]; Gel Specimen Number 2, 18 h filter exposure, time 4-22 h",8916 μg per filter
same,Active Agent Transferred from Gel to Filters,"[2]; Gel Specimen Number 2, 18 h filter exposure, time 22-40 h",7446 μg per filter
same,Active Agent Transferred from Gel to Filters,"[2]; Gel Specimen Number 2, 18 h filter exposure, time 40-58 h",7108 μg per filter
same,Total Active Agent Exuded from Gel,"[2]; Gel Specimen Number 2, Time 1 h",4855 µg
same,Total Active Agent Exuded from Gel,"[2]; Gel Specimen Number 2, Time 4 h",10229 µg
same,Total Active Agent Exuded from Gel,"[2]; Gel Specimen Number 2, Time 22 h",19145 µg
same,Total Active Agent Exuded from Gel,"[2]; Gel Specimen Number 2, Time 40 h",26590 µg
same,Total Active Agent Exuded from Gel,"[2]; Gel Specimen Number 2, Time 58 h",33699 µg
same,Quantitative Analysis - Islechem u-gram extraction,"[2]; Specimen aa, Hours 1, Cummulative Hours 1",2970 u-gram
same,Quantitative Analysis - Islechem u-gram extraction,"[2]; Specimen bb, Hours 1, Cummulative Hours 1",4030 u-gram
same,Quantitative Analysis - Islechem u-gram extraction,"[2]; Specimen cc, Hours 3, Cummulative Hours 4",3480 u-gram
same,Quantitative Analysis - Islechem u-gram extraction,"[2]; Specimen dd, Hours 3, Cummulative Hours 4",4460 u-gram
same,Quantitative Analysis - Islechem u-gram extraction,"[2]; Specimen ee, Hours 18, Cummulative Hours 22",7430 u-gram
same,Quantitative Analysis - Islechem u-gram extraction,"[2]; Specimen ff, Hours 18, Cummulative Hours 22",7400 u-gram
same,Quantitative Analysis - Islechem u-gram extraction,"[2]; Specimen gg, Hours 18, Cummulative Hours 40",7110 u-gram
same,Quantitative Analysis - Islechem u-gram extraction,"[2]; Specimen hh, Hours 18, Cummulative Hours 40",6180 u-gram
same,Quantitative Analysis - Islechem u-gram extraction,"[2]; Specimen ii, Hours 18, Cummulative Hours 58",5970 u-gram
same,Quantitative Analysis - Islechem u-gram extraction,"[2]; Specimen kk, Hours 18, Cummulative Hours 58",5900 u-gram
